Molecular target: T1, recombinant human PDK1 (Homo sapiens, UniProt O15530)
T1 construct: containing amino acids 51-556 of the human PDK1 enzyme; made in house; host or cells: Sf9 insect cells
T1 sequence (O15530 51-556): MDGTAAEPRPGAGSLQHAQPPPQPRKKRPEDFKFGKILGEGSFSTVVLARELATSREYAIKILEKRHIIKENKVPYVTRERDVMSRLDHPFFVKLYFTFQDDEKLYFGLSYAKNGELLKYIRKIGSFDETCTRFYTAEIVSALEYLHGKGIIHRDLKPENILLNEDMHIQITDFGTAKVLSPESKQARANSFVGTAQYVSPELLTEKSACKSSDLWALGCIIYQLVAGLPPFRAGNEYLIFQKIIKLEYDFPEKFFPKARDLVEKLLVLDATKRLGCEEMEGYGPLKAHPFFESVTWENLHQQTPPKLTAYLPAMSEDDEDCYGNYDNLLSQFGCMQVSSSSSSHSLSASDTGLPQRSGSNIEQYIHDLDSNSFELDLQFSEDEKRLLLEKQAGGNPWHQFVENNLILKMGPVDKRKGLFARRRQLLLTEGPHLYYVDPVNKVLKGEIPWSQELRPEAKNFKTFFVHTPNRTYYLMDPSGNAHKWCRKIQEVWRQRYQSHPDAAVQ
Assay: PDK1 IMAP fluorescence polarization assay (inhibition of peptide substrate phosphorylation)
Assay type: biochemical

[1] = Table 6, 10 nM PDK1 enzyme, 100 nM peptide substrate, 100 nM PIFtide, 2.5 uM ATP, 1.5 hours

IC50 (Table 10, compounds 97-132) [nM] | IC50 [1] [nM] | Structure (SMILES)
1 to 50 | – | CNc1nc(-c2c[nH]c(C(=O)Nc3ccccc3N3CCNCC3)n2)cc(N2CC(C(=O)NC3CCCCC3)CCC2C)n1 (racemic) [Compound 102, N-cyclohexyl-6-methyl-1-(2-(methylamino)-6-(2-(2-(piperazin-1-yl)phenylcarbamoyl)-1H-imidazol-4-yl)pyrimidin-4-yl)piperidine-3-carboxamide]
51 to 250 | – | CNc1nc(-c2c[nH]c(C(=O)Nc3ccccc3N3CCNCC3)n2)cc(N2C[C@@H](C(=O)NC3CCCCC3)CC[C@@H]2C)n1 (racemic) [Compound 104, N-cyclohexyl-6-methyl-1-(2-(methylamino)-6-(2-(2-(piperazin-1-yl)phenylcarbamoyl)-1H-imidazol-4-yl)pyrimidin-4-yl)piperidine-3-carboxamide]
1 to 50 | – | CNc1nc(-c2c[nH]c(C(=O)Nc3ccccc3OC3CCNCC3)n2)cc(N2CC(C(=O)NC3CCCCC3)CCC2C)n1 (racemic) [Compound 108, N-cyclohexyl-6-methyl-1-(2-(methylamino)-6-(2-(2-(piperidin-4-yloxy)phenylcarbamoyl)-1H-imidazol-4-yl)pyrimidin-4-yl)piperidine-3-carboxamide]
1 to 50 | – | CNc1nc(-c2c[nH]c(C(=O)Nc3cccc(F)c3N3CCOCC3)n2)cc(N2CC(C(=O)NC3CCCCC3)CCC2C)n1 (racemic) [Compound 109, N-cyclohexyl-1-(6-(2-(3-fluoro-2-morpholinophenylcarbamoyl)-1H-imidazol-4-yl)-2-(methylamino)pyrimidin-4-yl)-6-methylpiperidine-3-carboxamide]
1 to 50 | – | CNc1nc(-c2c[nH]c(C(=O)Nc3cccc(F)c3N3CCO[C@@H](CN)C3)n2)cc(N2CC(C(=O)NC3CCCCC3)CCC2C)n1 (mixture of isomers) [Compound 110, 1-(6-(2-(2-((S)-2-(aminomethyl)morpholino)-3-fluorophenylcarbamoyl)-1H-imidazol-4-yl)-2-(methylamino)pyrimidin-4-yl)-N-cyclohexyl-6-methylpiperidine-3-carboxamide]
1 to 50 | – | CNc1nc(-c2c[nH]c(C(=O)Nc3cccc(F)c3N3CCO[C@H](CN)C3)n2)cc(N2CC(C(=O)NC3CCCCC3)CCC2C)n1 (mixture of isomers) [Compound 111, 1-(6-(2-(2-((R)-2-(aminomethyl)morpholino)-3-fluorophenylcarbamoyl)-1H-imidazol-4-yl)-2-(methylamino)pyrimidin-4-yl)-N-cyclohexyl-6-methylpiperidine-3-carboxamide]
1 to 50 | – | CC1CCC(C(=O)NC2CCCCC2)CN1c1cc(-c2c[nH]c(C(=O)Nc3cc(N)ccc3N3CCC4(CCCNC4)CC3)n2)nc(N)n1 (racemic) [Compound 112, 1-(2-amino-6-(2-(5-amino-2-(2,9-diazaspiro[5.5]undecan-9-yl)phenylcarbamoyl)-1H-imidazol-4-yl)pyrimidin-4-yl)-N-cyclohexyl-6-methylpiperidine-3-carboxamide]
1 to 50 | – | CNc1nc(-c2c[nH]c(C(=O)Nc3ccccc3N3CCC4(CC3)OCCO4)n2)cc(N2CC(C(=O)NC3CCCCC3)CCC2C)n1 (racemic) [Compound 113]
1 to 50 | – | CNc1nc(-c2c[nH]c(C(=O)Nc3cccc(F)c3N3CCC4(CC3)CNC4)n2)cc(N2CC(C(=O)NC3CCCCC3)CCC2C)n1 (racemic) [Compound 118, N-cyclohexyl-1-(6-(2-(3-fluoro-2-(2,7-diazaspiro[3.5]nonan-7-yl)phenylcarbamoyl)-1H-imidazol-4-yl)-2-(methylamino)pyrimidin-4-yl)-6-methylpiperidine-3-carboxamide]
1 to 50 | – | CNc1nc(-c2c[nH]c(C(=O)Nc3cccc(F)c3N3CCC4(CCNC4)CC3)n2)cc(N2CC(C(=O)NC3CCCCC3)CCC2C)n1 (racemic) [Compound 119, N-cyclohexyl-1-(6-(2-(3-fluoro-2-(2,8-diazaspiro[4.5]decan-8-yl)phenylcarbamoyl)-1H-imidazol-4-yl)-2-(methylamino)pyrimidin-4-yl)-6-methylpiperidine-3-carboxamide]
1 to 50 | – | CNc1nc(-c2c[nH]c(C(=O)Nc3cccc(F)c3N3CCOC[C@H]3C)n2)cc(N2CC(C(=O)NC3CCCCC3)CCC2C)n1 (mixture of isomers) [Compound 122, N-cyclohexyl-1-(6-(2-(3-fluoro-2-((R)-3-methylmorpholino)phenylcarbamoyl)-1H-imidazol-4-yl)-2-(methylamino)pyrimidin-4-yl)-6-methylpiperidine-3-carboxamide]
– | 51 to 250 | Nc1ccc(N2CCC[C@@H](N)C2)c(NC(=O)c2ncc[nH]2)c1 [Compound 1, N-[5-amino-2-(3(R)-amino-1-piperidinyl)phenyl]-1H-imidazole-2-carboxamide]
– | 1000 to 5000 | CNC1(C(N)=O)CCN(c2ccc(N)cc2NC(=O)c2ncc[nH]2)CC1 [Compound 2, 1-[4-amino-2-[(1H-imidazol-2-ylcarbonyl)amino]phenyl]-4-(methylamino)-4-piperidinecarboxamide]
– | 251 to 1000 | NCC1CCN(c2ccc(N)cc2NC(=O)c2ncc[nH]2)CC1 [Compound 3, N-[5-amino-2-[4-(aminomethyl)-1-piperidinyl]phenyl]-1H-imidazole-2-carboxamide]
– | 51 to 250 | N[C@@H]1CCCN(c2c(F)cccc2NC(=O)c2nc(-c3cnn(Cc4ccccc4)c3)c[nH]2)C1 [Compound 4, N-[2-(3(R)-amino-1-piperidinyl)-3-fluorophenyl]-4-[1-(phenylmethyl)-1H-pyrazol-4-yl]-1H-imidazole-2-carboxamide]
– | 51 to 250 | N[C@@H]1CCCN(c2c(F)cccc2NC(=O)c2nc(-c3cnn(Cc4cccs4)c3)c[nH]2)C1 [Compound 5, N-[2-(3(R)-amino-1-piperidinyl)-3-fluorophenyl]-4-[1-(2-thienylmethyl)-1H-pyrazol-4-yl]-1H-imidazole-2-carboxamide]
– | 1000 to 5000 | CN(C)CCOc1ccccc1NC(=O)c1nc(-c2cnn(Cc3ccccc3)c2)c[nH]1 [Compound 6, N-[2-[2-(dimethylamino)ethoxy]phenyl]-4-[1-(phenylmethyl)-1H-pyrazol-4-yl]-1H-imidazole-2-carboxamide]
– | 1000 to 5000 | N[C@@H]1CCCN(c2c(F)cccc2NC(=O)c2nc(-c3cnn(Cc4ccccn4)c3)c[nH]2)C1 [Compound 7, N-[2-(3(R)-amino-1-piperidinyl)-3-fluorophenyl]-4-[1-(2-pyridinylmethyl)-1H-pyrazol-4-yl]-1H-imidazole-2-carboxamide]
– | 1 to 50 | Cc1cc(-c2c[nH]c(C(=O)Nc3cccc(F)c3N3CCC[C@@H](N)C3)n2)ccn1 [Compound 8, N-[2-(3(R)-amino-1-piperidinyl)-3-fluorophenyl]-4-(2-methyl-4-pyridinyl)-1H-imidazole-2-carboxamide]
– | 1000 to 5000 | N[C@@H]1CCCN(c2c(F)cccc2NC(=O)c2nc(-c3cncc(C(F)(F)F)c3)c[nH]2)C1 [Compound 9, N-[2-(3(R)-amino-1-piperidinyl)-3-fluorophenyl]-4-[5-(trifluoromethyl)-3-pyridinyl]-1H-imidazole-2-carboxamide]
– | 251 to 1000 | N[C@@H]1CCCN(c2c(F)cccc2NC(=O)c2nc(-c3ccncc3)c[nH]2)C1 [Compound 10, N-[2-(3(R)-amino-1-piperidinyl)-3-fluorophenyl]-4-(4-pyridinyl)-1H-imidazole-2-carboxamide]
– | 51 to 250 | N[C@@H]1CCCN(c2c(F)cccc2NC(=O)c2nc(-c3cn[nH]c3)c[nH]2)C1 [Compound 11, N-[2-(3(R)-amino-1-piperidinyl)-3-fluorophenyl]-4-(1H-pyrazol-4-yl)-1H-imidazole-2-carboxamide]
– | 51 to 250 | N[C@@H]1CCCN(c2c(F)cccc2NC(=O)c2nc(Br)c[nH]2)C1 [Compound 12, N-[2-(3(R)-amino-1-piperidinyl)-3-fluorophenyl]-4-bromo-1H-imidazole-2-carboxamide]
– | 51 to 250 | N[C@@H]1CCCN(c2c(F)cccc2NC(=O)c2nc(-c3cnn(Cc4cccnc4)c3)c[nH]2)C1 [Compound 13, N-[2-(3(R)-amino-1-piperidinyl)-3-fluorophenyl]-4-[1-(3-pyridinylmethyl)-1H-pyrazol-4-yl]-1H-imidazole-2-carboxamide]
– | 251 to 1000 | Cn1cc(-c2c[nH]c(C(=O)Nc3cccc(F)c3N3CCC[C@@H](N)C3)n2)cn1 [Compound 14, N-[2-(3(R)-amino-1-piperidinyl)-3-fluorophenyl]-4-(1-methyl-1H-pyrazol-4-yl)-1H-imidazole-2-carboxamide]
– | 1000 to 5000 | NC(=O)N[C@@H]1CCCN(c2c(F)cccc2NC(=O)c2nc(Br)c[nH]2)C1 [Compound 15, N-[2-[3(R)-[(aminocarbonyl)amino]-1-piperidinyl]-3-fluorophenyl]-4-bromo-1H-imidazole-2-carboxamide]
– | 51 to 250 | Nc1ccc(N2CCC[C@@H](N)C2)c(NC(=O)c2nc(Br)c[nH]2)c1 [Compound 16, N-[5-amino-2-(3(R)-amino-1-piperidinyl)phenyl]-4-bromo-1H-imidazole-2-carboxamide]

Structure (SMILES) | IC50 (Table 10, compounds 97-132) [nM] | IC50 [1] [nM]
CNc1nc(-c2c[nH]c(C(=O)Nc3cccc(F)c3N3CCC[C@@H](N)C3)n2)cc(N2CC(C(=O)NC3CCCCC3)CCC2C)n1 (mixture of isomers) [Compound 114, 1-(6-(2-(2-((R)-3-aminopiperidin-1-yl)-3-fluorophenylcarbamoyl)-1H-imidazol-4-yl)-2-(methylamino)pyrimidin-4-yl)-N-cyclohexyl-6-methylpiperidine-3-carboxamide] | 1 to 50 | –

— patent publication US8623857B2, “N-phenyl imidazole carboxamide inhibitors of 3-phosphoinositide-dependent protein kinase-1” (Merck Sharp & Dohme Corp., priority 2010, dated 2014)
